Read-outs that look alike come from different tables or passages of the source.
How the values were obtained:
[1] = test system: SKOV-3; assay: MTT in vitro antiproliferative assay, SKOV-3; assay type: cell-based; conditions: Homo sapiens; for IC (TGI): read-out: TGI
Excerpt: (§1) The in vitro antiproliferative activities of the novel triazolo[3,4-b]thiadiazole derivatives were estimated in ten well-established human cancer cell lines including three ovarian (SKOV-3, UWB 1.289, and UWB 1.289+BRCA1), five colorectal adenocarcinoma (DLD-1, HT-29, LS174T, LoVo, and SW403), and two prostate cancer cell lines (PC-3 and DU-145). All cancer cell lines were obtained from the American Type Culture Collection (ATCC) and cultivated in different culture media according to the instructions. The required growth mediums were supplemented with 10% fetal bovine serum and 1% streptomycin/penicillin. All cancer cell lines were cultured as monolayers and maintained at 37 °C, 5% CO2 in humidified air.
(§2) Stock solutions of all tested compounds were prepared by dissolving the required amount of substances in the DMSO solvent to reach the desired concentration of 15 mM.
(§3) To evaluate the in vitro antiproliferative activity of the triazolo[3,4-b]thiadiazole derivatives, 3-(4,5-dimethylthiazol-2-yl)-2,5-diphenyltetrazolium bromide (MTT) assay was assessed. According to the protocol, cells were firstly seeded into a 96-well plate at a density of 8 × 10^3 cells and grown for 24 h at 37 °C, 5% CO2 in humidified air. Subsequently, cells were treated with the tested compounds in a specific range of drug concentrations (1–100 μΜ). Following 48 h of drug exposure, the culture media were discarded and replaced with 100 μL of fresh medium. Afterwards, 50 μL of dissolved MTT in phosphate-buffered saline (PBS) solution (5 mg/mL) were added in each well and cells were incubated for 3 h at 37 °C, 5% CO2 in humidified air. Incubation time was followed by MTT discard and the addition of 100 μL of DMSO solvent so that the formazan crystals could be dissolved. The absorbance of the converted dye was immediately measured at a wavelength of 540 nm on an ELISA reader (VersaMax Microplate Reader, Orleans, CA, USA).
(§4) The in vitro anticancer effect of a tested compound on cell viability was determined by three dose–response parameters termed GI50, TGI, and IC50. More specifically, the GI50 value indicates the required concentration of the compound that impels 50% cell growth inhibition, the TGI value corresponds to the concentration that induces 100% cell growth inhibition, and the IC50 value is the concentration that causes 50% cell death. The two parameters GI50 and TGI represent the cytostatic activity, whereas IC50 reflects the cytotoxic effect of a drug. To estimate the three parameters, nine absorbance measurements were required including control 24 h (Ct24), control 72 h (Ct72), and the mean of cell survival in all seven drug concentrations (Tt72). The percentage growth inhibition was calculated according to National Cancer Institute’s (NCI) protocol: [(Tt72x) − (Ct24)/(Ct72) − (Ct24)] × 100 for concentrations for which Tt72x > Ct24 and [(Tt72x) − (Ct24)/Ct24] × 100 for concentrations for which Tt72x < Ct24. GI50 was calculated from [(Tt72x) − (Ct24)/(Ct72) − (Ct24)] × 100 = 50, TGI was calculated from [(Tt72x) − (Ct24)/(Ct72) − (Ct24)] × 100 = 0, and IC50 was calculated from [(Tt72x) − (Ct24)/Ct24] × 100 = 50. All the experiments were carried out in triplicate.

[2] = test system: PC-3; assay: MTT in vitro antiproliferative assay, PC-3; assay type: cell-based; conditions: Homo sapiens; for IC (TGI): read-out: TGI
Excerpt: as §1, §2, §3, §4

[3] = test system: HT-29; assay: MTT in vitro antiproliferative assay, HT-29; assay type: cell-based, human
Excerpt: as §1, §2, §3, §4

[4] = test system: DU-145; assay: MTT in vitro antiproliferative assay, DU-145; assay type: cell-based, human
Excerpt: as §1, §2, §3, §4

[5] = test system: DLD-1; assay: MTT in vitro antiproliferative assay, DLD-1; assay type: cell-based, human; conditions: DLD-1, MTT
Excerpt: as §1, §2, §3, §4

[6] = SK-OV-3, SKOV-3, MTT, 48 h, concentration causing 50% cell death, read-out: IC50
[7] = SK-OV-3, SKOV-3, MTT, 48 h drug exposure, read-out: GI50
[8] = SK-OV-3, SKOV-3, MTT, 48 h drug exposure
[9] = PC-3, MTT, 48 h, 50% cell death, read-out: IC50
[10] = PC-3, MTT, 48 h drug exposure, read-out: GI50

SMILES | GI50 [1, 7] | GI50 [2, 10] | IC50 [1, 6] | IC (TGI) [1, 8] | IC50 [2, 9] | IC (TGI) ([2]; PC-3, MTT, 48 h drug exposure) | also measured
COc1cc(Cc2nnc3sc(-c4ccc([N+](=O)[O-])cc4)nn23)c(S(=O)(=O)N(C(C)C)C(C)C)cc1OC [Compound 7c, N,N-diisopropyl-4,5-dimethoxy-2-((6-(4-nitrophenyl)-[1,2,4]triazolo[3,4-b][1,3,4]thiadiazol-3-yl)methyl)benzenesulfonamide] | 15 ± 1.4 µM | 23 ± 0.8 µM | 66 ± 2.5 µM | 28 ± 2.2 µM | > 100 µM | 102 ± 1.2 µM | 
CCN(CC)S(=O)(=O)c1cc(OC)c(OC)cc1Cc1nnc2sc(-c3cccc(Cl)c3)nn12 [Compound 6a, 2-((6-(3-chlorophenyl)-[1,2,4]triazolo[3,4-b][1,3,4]thiadiazol-3-yl)methyl)-N,N-diethyl-4,5-dimethoxybenzenesulfonamide] | 6 ± 0.3 µM | 25 ± 1.4 µM | > 100 µM | 14 ± 2.5 µM | > 100 µM | 112 ± 2.5 µM | 
CCN(CC)S(=O)(=O)c1cc(OC)c(OC)cc1Cc1nnc2sc(-c3ccc(Cl)cc3)nn12 [Compound 6b, 2-((6-(4-chlorophenyl)-[1,2,4]triazolo[3,4-b][1,3,4]thiadiazol-3-yl)methyl)-N,N-diethyl-4,5-dimethoxybenzenesulfonamide] | 36 ± 0.1 µM | 32 ± 0.4 µM | > 100 µM | 60 ± 0.8 µM | 104 ± 0.8 µM | 56 ± 0.6 µM | 
CCN(CC)S(=O)(=O)c1cc(OC)c(OC)cc1Cc1nnc2sc(-c3cc([N+](=O)[O-])ccc3[N+](=O)[O-])nn12 [Compound 6e, 2-((6-(2,5-dinitrophenyl)-[1,2,4]triazolo[3,4-b][1,3,4]thiadiazol-3-yl)methyl)-N,N-diethyl-4,5-dimethoxybenzenesulfonamide] |  |  |  |  |  |  | GI50 ([1]; SK-OV-3, 48 h): 18 ± 0.7 µM; IC50 ([1]; SK-OV-3, 48 h): 38 ± 1.8 µM; IC (TGI) ([1]; SK-OV-3, 48 h): 24 ± 1.2 µM; TGI ([3]; HT-29, MTT, 48 h drug exposure): 29 ± 0.5 μΜ; GI50 ([3]; Homo sapiens, HT-29, 48 h): 18 ± 1 µM; IC50 ([3]; Homo sapiens, HT-29, 48 h): 44 ± 1 µM; GI50 ([2]; PC-3, 48 h): 11 ± 1 µM; IC50 ([2]; PC-3, 48 h): 26.5 ± 0.9 µM; IC (TGI) ([2]; PC-3, 48 h): 17 ± 1 µM; TGI ([4]; DU-145, MTT, 48 h drug exposure): 18.3 ± 0.2 μΜ; GI50 ([4]; Homo sapiens, DU-145, 48 h): 13 ± 0.5 µM; IC50 ([4]; Homo sapiens, DU-145, 48 h): 28 ± 0.2 µM; TGI ([5]; 48 h drug exposure): 37 ± 2.0 μΜ; IC50 ([5]; Homo sapiens, 48 h, 50% cell death): 53.6 ± 1.05 µM; GI50 ([5]; Homo sapiens, 48 h drug exposure): 25 ± 2 µM
CCN(CC)S(=O)(=O)c1cc(OC)c(OC)cc1Cc1nnc2sc(-c3ccc([N+](=O)[O-])cc3)nn12 [Compound 6d, N,N-diethyl-4,5-dimethoxy-2-((6-(4-nitrophenyl)-[1,2,4]triazolo[3,4-b][1,3,4]thiadiazol-3-yl)methyl)benzenesulfonamide] | 80 ± 0.5 µM | 50 ± 0.5 µM | > 100 µM | > 100 µM | > 100 µM | > 100 µM | 
COc1cc(Cc2nnc3sc(-c4ccc(F)cc4)nn23)c(S(=O)(=O)N(C(C)C)C(C)C)cc1OC [Compound 7b, 2-((6-(4-fluorophenyl)-[1,2,4]triazolo[3,4-b][1,3,4]thiadiazol-3-yl)methyl)-N,N-diisopropyl-4,5-dimethoxybenzenesulfonamide] | 80 ± 0.8 µM | 25 ± 0.5 µM | > 100 µM | > 100 µM | > 100 µM | 80 ± 1 µM | 
CCN(CC)S(=O)(=O)c1cc(OC)c(OC)cc1Cc1nnc2sc(-c3ccc(F)cc3)nn12 [Compound 6c, N,N-diethyl-2-((6-(4-fluorophenyl)-[1,2,4]triazolo[3,4-b][1,3,4]thiadiazol-3-yl)methyl)-4,5-dimethoxybenzenesulfonamide] | > 100 µM | 90 ± 2 µM | > 100 µM | > 100 µM | > 100 µM | > 100 µM | 
COc1cc(Cc2nnc3sc(-c4cccc(Cl)c4)nn23)c(S(=O)(=O)N(C(C)C)C(C)C)cc1OC [Compound 7a, 2-((6-(3-chlorophenyl)-[1,2,4]triazolo[3,4-b][1,3,4]thiadiazol-3-yl)methyl)-N,N-diisopropyl-4,5-dimethoxybenzenesulfonamide] | 16 ± 0.8 µM | 20 ± 0.8 µM | > 100 µM | 46 ± 1.5 µM | > 100 µM | > 100 µM | 

Further lines, with some results ahead:

GI50 [1, 7] | GI50 [2, 10] | SMILES | IC50 [1, 6] | IC (TGI) [1, 8] | IC50 [2, 9] | IC (TGI) ([2]; PC-3, MTT, 48 h drug exposure) | also measured
> 100 µM | 42 ± 1 µM | CCN(CC)S(=O)(=O)c1cc(OC)c(OC)cc1Cc1nnc2sc(/C=C/c3ccc(F)cc3)nn12 [Compound 9b, (E)-N,N-diethyl-2-((6-(4-fluorostyryl)-[1,2,4]triazolo[3,4-b][1,3,4]thiadiazol-3-yl)methyl)-4,5-dimethoxybenzenesulfonamide] | > 100 µM | > 100 µM | > 100 µM | > 100 µM | 
84 ± 2 µM | 11 ± 1 µM | CCN(CC)S(=O)(=O)c1cc(OC)c(OC)cc1Cc1nnc2sc(/C=C/c3ccc(Cl)cc3)nn12 [Compound 9a, (E)-2-((6-(4-chlorostyryl)-[1,2,4]triazolo[3,4-b][1,3,4]thiadiazol-3-yl)methyl)-N,N-diethyl-4,5-dimethoxybenzenesulfonamide] | > 100 µM | > 100 µM | > 100 µM | > 100 µM | 
> 100 µM | 30 ± 0.5 µM | CCN(CC)S(=O)(=O)c1cc(OC)c(OC)cc1Cc1nnc2sc(/C=C/c3ccc([N+](=O)[O-])cc3)nn12 [Compound 9d, (E)-N,N-diethyl-4,5-dimethoxy-2-((6-(4-nitrostyryl)-[1,2,4]triazolo[3,4-b][1,3,4]thiadiazol-3-yl)methyl)benzenesulfonamide] | > 100 µM | > 100 µM | > 100 µM | > 100 µM | 
50 ± 2 µM | 31 ± 1.1 µM | COc1cc(Cc2nnc3sc(/C=C/c4ccc(F)cc4)nn23)c(S(=O)(=O)N(C(C)C)C(C)C)cc1OC [Compound 10b, (E)-2-((6-(4-fluorostyryl)-[1,2,4]triazolo[3,4-b][1,3,4]thiadiazol-3-yl)methyl)-N,N-diisopro-pyl-4,5-dimethoxybenzenesulfonamide] | > 100 µM | > 100 µM | > 100 µM | > 100 µM | 
76 ± 6 µM | 2 ± 0.5 µM | COc1cc(Cc2nnc3sc(/C=C/c4ccc(Cl)cc4)nn23)c(S(=O)(=O)N(C(C)C)C(C)C)cc1OC [Compound 10a, (E)-2-((6-(4-chlorostyryl)-[1,2,4]triazolo[3,4-b][1,3,4]thiadiazol-3-yl)methyl)-N,N-diisopro-pyl-4,5-dimethoxybenzenesulfonamide] | > 100 µM | > 100 µM | > 100 µM | 84 ± 2 µM | 
> 100 µM | 38 ± 2 µM | CCN(CC)S(=O)(=O)c1cc(OC)c(OC)cc1Cc1nnc2sc(/C=C/c3cccc([N+](=O)[O-])c3)nn12 [Compound 9c, (E)-N,N-diethyl-4,5-dimethoxy-2-((6-(3-nitrostyryl)-[1,2,4]triazolo[3,4-b][1,3,4]thiadiazol-3-yl)methyl)benzenesulfonamide] | > 100 µM | > 100 µM | > 100 µM | > 100 µM | 

Source: paper PMC8066331, “Anticancer Activity of Triazolo-Thiadiazole Derivatives and Inhibition of AKT1 and AKT2 Activation” (Pharmaceutics, 2021)
